Assay results published in article PMC7725003, “Systematically Studying the Optimal Amino Acid Distribution Patterns of the Amphiphilic Structure by Using the Ultrashort Amphiphiles” (Frontiers in Microbiology, 2020).
Where no end group is shown, it is not given here.

What was measured:
Gram-positive bacteria = details: for GM, Gram-positive bacteria: geometric mean of MICs (Table 3); for TI, Gram-positive bacteria: therapeutic index TI = MHC/GM MIC
Experimental: (§1) The antimicrobial activity of AMPs is the most decisive index for evaluating the clinical application of antimicrobial drugs.
(§2) The antimicrobial activities of the peptides were measured using a method adapted from the National Committee for Clinical Laboratory Standards (NCCLS) with some modifications ([Chou et al., 2016]). The specific procedure for these assays has been previously described. In brief, the bacterial cells were grown to a mid-logarithmic phase and diluted in MHB to an ultimate concentration of 0.5–1 × 10^6 CFU mL^–1. Subsequently, the peptides were consecutively diluted in a 0.2% BSA solution and then added to a bacterial solution in a 96-well plate at identical volumes. After incubation for 24 h at 37°C, the MICs were determined to be the lowest peptide concentration that inhibited 95% of the bacterial growth by monitoring the absorbance at 492 nm using a microplate reader. Subsequently, 50 μL of each incubation mixture was further transferred to agar plates and incubated overnight. […] Every assay was reproduced more than 3 times.

Gram-negative bacteria = details: for GM, Gram-negative bacteria: geometric mean of MICs (Table 3); for TI, Gram-negative bacteria: therapeutic index TI = MHC/GM MIC
Experimental: as §1, §2

[1] = system: Listeria monocytogenes CGMCC 1.1075; format: cell-based; details: CGMCC 1.1075, 24 h
Experimental: (§3) The antimicrobial activities of the peptides were measured using a method adapted from the National Committee for Clinical Laboratory Standards (NCCLS) with some modifications ([Chou et al., 2016]). The specific procedure for these assays has been previously described. In brief, the bacterial cells were grown to a mid-logarithmic phase and diluted in MHB to an ultimate concentration of 0.5–1 × 10^6 CFU mL^–1. Subsequently, the peptides were consecutively diluted in a 0.2% BSA solution and then added to a bacterial solution in a 96-well plate at identical volumes. After incubation for 24 h at 37°C, the MICs were determined to be the lowest peptide concentration that inhibited 95% of the bacterial growth by monitoring the absorbance at 492 nm using a microplate reader. Subsequently, 50 μL of each incubation mixture was further transferred to agar plates and incubated overnight. The minimum bactericidal concentrations (MBCs) were determined as the lowest peptide concentration that killed greater than 99.9% of the bacterial cells. Every assay was reproduced more than 3 times.

S. epidermidis 12228 = format: cell-based, Staphylococcus epidermidis; details: 12228, 24 h
Experimental: as §3

S. aureus 25923 = format: cell-based, Staphylococcus aureus; details: 25923, 24 h
Experimental: as §3

S. aureus 29213 [2] = format: cell-based, Staphylococcus aureus; details: 29213, 24 h
Experimental: as §3

S. typhimurium 7731 = format: cell-based, Salmonella typhimurium; details: 7731, 24 h
Experimental: as §3

S. typhimurium 14028 = format: cell-based, Salmonella typhimurium; details: 14028, 24 h
Experimental: as §3

P. aeruginosa 27853 = format: cell-based, Pseudomonas aeruginosa; details: 27853, 24 h
Experimental: as §3

[3] = system: all of the tested bacterial strains; experiment: Geometric mean of MICs, all tested bacterial strains; format: cell-based; details: for GM, All: geometric mean of MICs across all tested strains; for TI, All: therapeutic index TI = MHC/GM MIC
Text: The antimicrobial activity of AMPs is the most decisive index for evaluating the clinical application of antimicrobial drugs. Many antimicrobial agents inhibit bacterial growth rather than kill the bacteria quickly, and long-term infections are pathogens that are not completely killed, which results in bacterial severe drug resistance. […] The geometric mean (GM) values of the MICs/MBCs of the two series across all of the tested bacterial strains are represented in Table 3, which depicts the average bacteriostatic/bactericidal level of a peptide.
as §3

MRSA 43300 = format: cell-based, methicillin-resistant S. aureus; details: 43300, 24 h
Experimental: as §3

B. subtilis 63501 = format: cell-based, Bacillus subtilis; details: 63501, 24 h
Experimental: as §3

S. pullorum 7913 = format: cell-based, Salmonella pullorum; details: 7913, 24 h
Experimental: as §3

E. faecalis 29212 = format: cell-based, Enterococcus faecalis; details: 29212, 24 h
Experimental: as §3

E. coli ATCC 25922 = experiment: Salt sensitivity assay (MIC); format: cell-based, Escherichia coli; details: for MIC, FeCl3: 4 μM FeCl3; for MIC, NH4Cl: 6 μM NH4Cl; for MIC, ZnCl2: 8 μM ZnCl2; for MIC, MgCl2: 1 mM MgCl2; for MIC, CaCl2: 2 mM CaCl2; for MIC, KCl: 4.5 mM KCl; for MIC, NaCl: 150 mM NaCl; for MIC, Control: no added salt, three independent assays
Experimental: as §3
(§4) The salt sensitivities of the peptides were determined. E. coli ATCC 25922 and S. aureus ATCC 29213 were incubated in the presence of various ultimate concentrations of physiological salts (150 mM NaCl, 4.5 mM KCl, 6 μM NH4Cl, 8 μM ZnCl2, 1 mM MgCl2, 2mM CaCl2, and 4 μM FeCl3) according to our previous protocol ([Yang et al., 2019]). These tests were performed under the MICs, and three independent assays were performed.

E. coli 25922 = format: cell-based, Escherichia coli; details: 25922, 24 h
Experimental: as §3

E. coli O78 = format: cell-based, Escherichia coli; details: O78, 24 h
Experimental: as §3

E. coli UB1005 = format: cell-based, Escherichia coli; details: UB1005, 24 h
Experimental: as §3

S. aureus 29213 [4] = experiment: Salt sensitivity assay (MIC); format: cell-based, Staphylococcus aureus; details: for MIC, FeCl3: 4 μM FeCl3; for MIC, NH4Cl: 6 μM NH4Cl; for MIC, ZnCl2: 8 μM ZnCl2; for MIC, MgCl2: 1 mM MgCl2; for MIC, CaCl2: 2 mM CaCl2; for MIC, KCl: 4.5 mM KCl; for MIC, NaCl: 150 mM NaCl; for MIC, Control: no added salt, three independent assays
Experimental: as §3, §4

WRRWRWRWW-NH2 [W3]
GM, Gram-positive bacteria (Gram-positive bacteria): 2.69 µM
TI, Gram-positive bacteria (Gram-positive bacteria): 95.17
GM, Gram-negative bacteria (Gram-negative bacteria): 4.67 µM
TI, Gram-negative bacteria (Gram-negative bacteria): 54.82
MBC [1]: 8 µM
MIC [1]: 4 µM
MBC (S. epidermidis 12228): 4 µM
MIC (S. epidermidis 12228): 2 µM
MBC (S. aureus 25923): 8 µM
MIC (S. aureus 25923): 4 µM
MBC (S. aureus 29213 [2]): 8 µM
MIC (S. aureus 29213 [2]): 4 µM
MBC (S. typhimurium 7731): 16 µM
MIC (S. typhimurium 7731): 8 µM
MBC (S. typhimurium 14028): 8 µM
MIC (S. typhimurium 14028): 4 µM
MBC (P. aeruginosa 27853): 8 µM
MIC (P. aeruginosa 27853): 4 µM
GM, All [3]: 3.67 µM
TI, All [3]: 69.75
MBC (MRSA 43300): 4 µM
MIC (MRSA 43300): 2 µM
MBC (B. subtilis 63501): 2 µM
MIC (B. subtilis 63501): 1 µM
MBC (S. pullorum 7913): 4 µM
MIC (S. pullorum 7913): 2 µM
MBC (E. faecalis 29212): 8 µM
MIC (E. faecalis 29212): 4 µM
MIC, FeCl3 (E. coli ATCC 25922): 8 µM
MIC, NH4Cl (E. coli ATCC 25922): 4 µM
MIC, ZnCl2 (E. coli ATCC 25922): 8 µM
MIC, MgCl2 (E. coli ATCC 25922): 8 µM
MIC, CaCl2 (E. coli ATCC 25922): 8 µM
MIC, KCl (E. coli ATCC 25922): 8 µM
MIC, NaCl (E. coli ATCC 25922): 16 µM
MIC, Control (E. coli ATCC 25922): 4 µM
MBC (E. coli 25922): 8 µM
MIC (E. coli 25922): 4 µM
MBC (E. coli O78): 8 µM
MIC (E. coli O78): 4 µM
MBC (E. coli UB1005): 8 µM
MIC (E. coli UB1005): 4 µM
MIC, FeCl3 (S. aureus 29213 [4]): 8 µM
MIC, NH4Cl (S. aureus 29213 [4]): 8 µM
MIC, ZnCl2 (S. aureus 29213 [4]): 4 µM
MIC, MgCl2 (S. aureus 29213 [4]): 4 µM
MIC, CaCl2 (S. aureus 29213 [4]): 4 µM
MIC, KCl (S. aureus 29213 [4]): 2 µM
MIC, NaCl (S. aureus 29213 [4]): 8 µM
MIC, Control (S. aureus 29213 [4]): 4 µM

RRWWWWRRW-NH2 [W7]
GM, Gram-positive bacteria (Gram-positive bacteria): 2.44 µM
TI, Gram-positive bacteria (Gram-positive bacteria): 104.92
GM, Gram-negative bacteria (Gram-negative bacteria): 5.88 µM
TI, Gram-negative bacteria (Gram-negative bacteria): 43.54
MBC [1]: 4 µM
MIC [1]: 2 µM
MBC (S. epidermidis 12228): 4 µM
MIC (S. epidermidis 12228): 2 µM
MBC (S. aureus 25923): 4 µM
MIC (S. aureus 25923): 2 µM
MBC (S. aureus 29213 [2]): 8 µM
MIC (S. aureus 29213 [2]): 4 µM
MBC (S. typhimurium 7731): 32 µM
MIC (S. typhimurium 7731): 16 µM
MBC (S. typhimurium 14028): 16 µM
MIC (S. typhimurium 14028): 8 µM
MBC (P. aeruginosa 27853): 32 µM
MIC (P. aeruginosa 27853): 4 µM
GM, All [3]: 4.00 µM
TI, All [3]: 64.00
MBC (MRSA 43300): 4 µM
MIC (MRSA 43300): 2 µM
MBC (B. subtilis 63501): 2 µM
MIC (B. subtilis 63501): 1 µM
MBC (S. pullorum 7913): 8 µM
MIC (S. pullorum 7913): 4 µM
MBC (E. faecalis 29212): 16 µM
MIC (E. faecalis 29212): 8 µM
MIC, FeCl3 (E. coli ATCC 25922): 8 µM
MIC, NH4Cl (E. coli ATCC 25922): 4 µM
MIC, ZnCl2 (E. coli ATCC 25922): 4 µM
MIC, MgCl2 (E. coli ATCC 25922): 4 µM
MIC, CaCl2 (E. coli ATCC 25922): 8 µM
MIC, KCl (E. coli ATCC 25922): 8 µM
MIC, NaCl (E. coli ATCC 25922): 8 µM
MIC, Control (E. coli ATCC 25922): 4 µM
MBC (E. coli 25922): 8 µM
MIC (E. coli 25922): 4 µM
MBC (E. coli O78): 16 µM
MIC (E. coli O78): 8 µM
MBC (E. coli UB1005): 8 µM
MIC (E. coli UB1005): 4 µM
MIC, FeCl3 (S. aureus 29213 [4]): 8 µM
MIC, NH4Cl (S. aureus 29213 [4]): 4 µM
MIC, ZnCl2 (S. aureus 29213 [4]): 4 µM
MIC, MgCl2 (S. aureus 29213 [4]): 4 µM
MIC, CaCl2 (S. aureus 29213 [4]): 4 µM
MIC, KCl (S. aureus 29213 [4]): 4 µM
MIC, NaCl (S. aureus 29213 [4]): 4 µM
MIC, Control (S. aureus 29213 [4]): 4 µM
